Holding throughout (assay): NCI anticancer screen, dose series, 48 h
Test [1] concerns NCI-H522.
For test [2], the system named is NCI-H23.
Test [3] has as its system Malme-3M.
Test [4] has as its system SNB-19.
For test [5], the system named is SK-MEL-2.
Test [6] deals with CCRF-CEM.
Test [7] concerns SW-620.
Test [8] relates to OVCAR-5.
The test system of test [9] is UO-31.
Test [10] has as its system HOP-92.
The test system of test [11] is MOLT-4.
Test [12] relates to SR.
Test [13] deals with OVCAR-8.
Test [14] deals with SN12C.
For test [15], the system named is MDA-MB-435.
Test [16] has as its system HT-29.
For test [17], the system named is UACC-257.
For test [18], the system named is HL-60.
The subject of test [19] is SNB-75.
The test system of test [20] is T47D.

Each structure is given as a SMILES string.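 All cell lines were grown in 96-well plates and treated with compound for 48 hours. Here, GI50 denotes the concentration required for 50% inhibition of growth.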 Activity calls are given as the source filed them. No stated cut-off is given here; in the data, active = GI50 up to about 1.1 µM and inactive = higher. Some results are limits rather than exact numbers.

As to `c1cc2c(ncc3cscc32)s1`, the GI50 is > 100 µM (inactive) in test [1]; > 68.4 µM (inactive) in [2]; > 100 µM (inactive) in test [3]; > 100 µM (inactive) in test [4]; > 100 µM (inactive) in [5]; > 100 µM (inactive) in test [6]. The GI50 is > 100 µM (inactive) in test [7]; > 89.5 µM (inactive) in test [8]; > 70.6 µM (inactive) in test [9]; > 100 µM (inactive) in test [10]; > 100 µM (inactive) in test [11]; > 100 µM (inactive) in test [12]. Also, the GI50 in [13], in [14], in test [15], in test [16], in test [17] and in test [18] was > 100 µM (inactive) in each case. In [19], the GI50 is > 52.6 µM (inactive).

For the compound `CCC1(O)CN(CCOC)[C@H]2C[C@@H]1C(=O)c1[nH]c3ccccc3c12` (stereo partly specified), the GI50 in test [1], in test [2], in [3], in test [4], in test [5] and in test [6] was > 100 µM (inactive) throughout. For the same compound, the GI50 in test [7], in test [8], in test [9], in test [10], in test [11] and in test [12] was > 100 µM (inactive) each time. Moreover, the GI50 in test [13], in test [14], in test [15], in test [16], in [17] and in [18] was > 100 µM (inactive) each time. For the same compound, in [19], the GI50 is > 100 µM (inactive).

Consider `CCN1CCCc2cc3c(C(F)(F)F)cc(=O)oc3cc21`, for which the GI50 in test [1] was 55.5 µM (inactive); in test [2], 57.4 µM (inactive); in [4] it was > 100 µM (inactive); in [5] it was > 100 µM (inactive); in test [7], > 100 µM (inactive); in [8], > 100 µM (inactive). In addition, the GI50 in test [9] was > 100 µM (inactive); in [10], 33.3 µM (inactive); in test [11], 42.4 µM (inactive); in test [13], 91.6 µM (inactive); in [20], 65.5 µM (inactive); in test [14], 99.8 µM (inactive). Besides, the GI50 was 73.1 µM (inactive) in test [15]; 48.8 µM (inactive) in test [16]; 42.1 µM (inactive) in test [17]; 0.0258 µM (active) in [18]; 42.5 µM (inactive) in test [19].

In the case of `CC(=O)C(=CNc1c(C)n(C)n(-c2ccccc2)c1=O)C(C)=O`, the GI50 in [1], in [2], in [3], in test [4], in test [5] and in test [6] was > 100 µM (inactive) throughout. Also, the GI50 in test [7], in [8], in [9], in test [10], in test [11] and in test [12] was > 100 µM (inactive) in each case. The GI50 in [13], in test [14], in test [15], in [17], in test [18] and in test [19] was > 100 µM (inactive) each time.

In the case of `CC(C)C1=CC2=C(C(=O)C1=O)C13CCCC(C)(C)C1CC2OC3=O` (stereo unspecified), the GI50 in [1] is 11.3 µM (inactive); in [2], 26.8 µM (inactive); in test [4], 42.9 µM (inactive); in test [5], 21.7 µM (inactive); in test [6], 3.97 µM (inactive); in test [7] it was 14.5 µM (inactive). For the same compound, the GI50 in test [8] is 25.4 µM (inactive); in [9], 19.4 µM (inactive); in test [10], 19 µM (inactive); in [11] it was 6.11 µM (inactive); in test [13] it was 19.2 µM (inactive); in test [20], 20.4 µM (inactive). For the same compound, the GI50 in test [14] is 21.4 µM (inactive); in [15], 20.8 µM (inactive); in test [16], 12.5 µM (inactive); in test [17], 23.9 µM (inactive); in [18] it was 15.1 µM (inactive); in test [19], 25.7 µM (inactive).

Consider `Cc1cccc(NC(=O)C(=O)C2C(=O)NC(=O)NC2=O)c1C`, for which the GI50 in test [1], in test [2], in test [3], in test [4], in [5] and in test [6] was > 100 µM (inactive) each time. Also, the GI50 in test [7], in test [8], in [9], in test [10], in test [11] and in test [12] was > 100 µM (inactive) throughout. The GI50 in [13], in test [14], in test [16], in test [17], in [18] and in [19] was > 100 µM (inactive) throughout.

Turning to `Oc1ccc2ccccc2c1OCc1nnc(CCCCCCCCc2nnc(COc3c(O)ccc4ccccc34)o2)o1`, the GI50 in test [1], in test [2], in test [3], in test [4], in [5] and in test [7] was > 100 µM (inactive) throughout. The GI50 in test [8] was > 100 µM (inactive); in [9], > 100 µM (inactive); in [10], > 100 µM (inactive); in [11] it was 92.3 µM (inactive); in [14] it was > 100 µM (inactive); in test [15], > 100 µM (inactive). Further, the GI50 in test [16], in [17] and in [19] was > 100 µM (inactive) in each case.

Consider `CC#CCCCC1(C)CCNC1=S` (stereo unspecified), for which the GI50 in [1], in [2], in test [3], in test [4], in [5] and in [6] was > 10 µM (inactive) in each case. The GI50 in test [7], in test [8], in test [9], in test [10], in [11] and in [12] was > 10 µM (inactive) throughout. The GI50 in test [13], in test [14], in [15], in [16], in test [17] and in [18] was > 10 µM (inactive) throughout. For the same compound, the GI50 in test [19] was > 10 µM (inactive).

Regarding `CCN(CC)CCNc1ccc(C)c2sc3ccc(O)cc3c(=O)c12`, the GI50 in test [1] is 1.28 µM (inactive); in test [2], 1.2 µM (inactive); in [3] it was 1.15 µM (inactive); in test [4], 1.82 µM (inactive); in test [5], 1.79 µM (inactive); in [6] it was 0.0991 µM (active). Further, the GI50 in test [7] is 0.582 µM (active); in test [8], 4.1 µM (inactive); in test [9], 1.14 µM (inactive); in test [10], 1.87 µM (inactive); in [11] it was < 0.012 µM (active); in test [12], 0.0149 µM (active). Moreover, the GI50 in test [13] was 1.37 µM (inactive); in test [14], 0.594 µM (active); in [16], 1.58 µM (inactive); in [17] it was 1.55 µM (inactive); in [18] it was 0.106 µM (active); in test [19] it was 1.05 µM (active).

With `COc1ccc(-c2oc3cc(-c4cc5oc(-c6ccc(OC)cc6)c(-c6ccc(OC)cc6)c5cc4OC)c(OC)cc3c2-c2ccc(OC)cc2)cc1`, the GI50 in test [1], in test [2], in test [3], in [4], in test [6] and in test [7] was > 100 µM (inactive) throughout. Besides, the GI50 in test [8], in test [9], in [10], in test [11], in test [12] and in test [13] was > 100 µM (inactive) each time. Moreover, the GI50 in test [14], in [15], in [16], in [17] and in test [19] was > 100 µM (inactive) in each case.

On to `c1ccc2[nH]c3[nH]c4[nH]c5ccccc5[nH]c4[nH]c3[nH]c2c1`, for which the GI50 in test [1], in [2], in test [3], in test [4], in test [5] and in test [6] was > 100 µM (inactive) in each case. For the same compound, the GI50 is > 100 µM (inactive) in test [7]; 44.5 µM (inactive) in test [8]; > 100 µM (inactive) in test [9]; > 100 µM (inactive) in test [11]; > 100 µM (inactive) in test [12]; > 100 µM (inactive) in [13]. Moreover, the GI50 in test [14] is > 100 µM (inactive); in test [15], > 100 µM (inactive); in test [16] it was > 100 µM (inactive); in [17], > 100 µM (inactive); in [18] it was > 100 µM (inactive); in test [19], 21 µM (inactive).

The record behind these values is ChEMBL document CHEMBL1201862, “PubChem BioAssay data set” (2004).
